From patent publication US7138361B2, “Herbicidal heterocycles” (E. I. du Pont de Nemours and Company, priority 2000, dated 2006)

What was measured:
Format in all cases: in vivo
Nightshade [1] = test: Test C preemergence; details: Rate 500 g/ha, visual evaluation after 12 to 14 days
kochia (Kochia scoparia) = test: Test C preemergence
Procedure, shortened: (§1)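 Each compound was dissolved in a non-phytotoxic solvent system containing a surfactant and sprayed either on freshly planted seeds (preemergence) or on young plants, 2 to 18 cm high (postemergence). Ratings after 12 to 14 greenhouse days ran from 0, no effect, to 100, complete control.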

[2] = test system: Surinam grass (Brachiaria decumbens); test: Test C preemergence
Procedure, shortened: as §1

[3] = test system: bermudagrass (Cynodon dactylon); test: Test C preemergence
Procedure, shortened: as §1

[4] = test system: common ragweed (Ambrosia elatior); test: Test C preemergence
Procedure, shortened: as §1

[5] = test system: velvetleaf (Abutilon theophrasti); test: Test C preemergence
Procedure, shortened: as §1

Sunflower = test: Test C preemergence; details: Rate 125 g/ha; scale 0 to 100, 0 no effect, 100 complete control
[6] = test system: crabgrass (Digitaria sanguinalis); test: Test C preemergence
Procedure, shortened: as §1

[7] = test system: yellow nutsedge (Cyperus esculentus); test: Test C preemergence
Procedure, shortened: as §1

corn (Zea mays) = test: Test C preemergence
Procedure, shortened: as §1

[8] = test system: pigweed (Amaranthus retroflexus); test: Test C preemergence
Procedure, shortened: as §1

[9] = test system: woolly cupgrass (Eriochloa villosa); test: Test C preemergence
Procedure, shortened: as §1

[10] = test system: giant foxtail (Setaria faberii); test: Test C preemergence
Procedure, shortened: as §1

[11] = test system: johnsongrass (Sorghum halepense); test: Test C preemergence
Procedure, shortened: as §1

[12] = test system: goosegrass (Eleusine indica); test: Test C preemergence
Procedure, shortened: as §1

[13] = test system: cocklebur (Xanthium strumarium); test: Test C preemergence
Procedure, shortened: as §1

Nightshade [14] = test: Test C preemergence
soybean (Glycine max) = test: Test C preemergence
Procedure, shortened: as §1

[15] = test system: morningglory (Ipomoea hederacea); test: Test C preemergence
Procedure, shortened: as §1

rice (Oryza saliva) = test: Test C flooded paddy test; details: for Plant response rating, Rice: flooded paddy test, scale 0 to 100 (0 no effect, 100 complete control)
Procedure, shortened: (§2)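 Visual injury score, 0 (no effect) to 100 (complete control), relative to controls. Paddy plants treated at 2-leaf stage; greenhouse hold 12–14 d before rating.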

[16] = test system: duck salad (Heteranthera limosa); test: Test C flooded paddy test; details: for Ducksalad plant response rating: Flooded Paddy, scale 0 to 100, 0 no effect, 100 complete control; for Plant response rating, Ducksalad: flooded paddy test, scale 0 to 100 (0 no effect, 100 complete control)
Procedure, shortened: as §2

[17] = test system: smallflower flatsedge (Cyperus difformis); test: Test C flooded paddy test; details: for Flatsedge plant response rating: Flooded Paddy, scale 0 to 100, 0 no effect, 100 complete control; for Plant response rating, Flatsedge: flooded paddy test, scale 0 to 100 (0 no effect, 100 complete control)
Procedure, shortened: as §2

[18] = test system: barnyardgrass (Echinochloa crus-galli); test: Test C flooded paddy test; details: for Barnyardgrass plant response rating: Flooded Paddy, scale 0 to 100, 0 no effect, 100 complete control; for Plant response rating, Barnyardgrass: flooded paddy test, scale 0 to 100 (0 no effect, 100 complete control)
Procedure, shortened: as §2

[19] = Rate 125 g/ha, scale 0 to 100, 0 no effect, 100 complete control
[20] = preemergence, Rate 62 g/ha, scale 0 to 100
[21] = preemergence, Rate 500 g/ha, visual evaluation after 12 to 14 days
[22] = preemergence, Rate 250 g/ha, scale 0 to 100, 0 no effect, 100 complete control

In the case of `COc1cc(N2CCC(n3ccc(C(C)(C)C)n3)C2=O)ccc1Cl` (stereo not drawn) [Compound 117], the “Plant response rating (0 to 100), Nightshade” value (Nightshade [1]) is reported as 100, the “Plant response rating, Kochia” value (kochia (Kochia scoparia); [19]) is reported as 100 and the “Plant response rating, Kochia” value (kochia (Kochia scoparia); [20]) is reported as 90. The “Plant response rating (0 to 100), Kochia” value (kochia (Kochia scoparia); [21]) was 100, the “Plant response rating, Kochia” value (kochia (Kochia scoparia); [22]) was 100 and the “Plant response rating, Surinam grass” value [2, 19] was 10. The “Plant response rating, Surinam grass” value [2, 20] was 10, the “Plant response rating (0 to 100), Surinam grass” value [2, 21] was 100 and the “Plant response rating, Surinam grass” value [2, 22] was 75. For the same compound, the “Plant response rating, Bermudagrass” value [3, 19] was 100, the “Plant response rating, Bermudagrass” value [3, 20] was 100 and the “Plant response rating (0 to 100 where 0 is no effect and 100 is complete control), Bermudagrass” value [3, 21] was 100. For the same compound, the “Plant response rating, Bermudagrass” value [3, 22] was 100, the “Plant response rating, Ragweed, Common” value [4, 19] was 100 and the “Plant response rating, Ragweed, Common” value [4, 20] was 100. For the same compound, the “Plant response rating (0 to 100), Ragweed, Common” value [4, 21] was 100, the “Plant response rating, Ragweed, Common” value [4, 22] was 100 and the “Plant response rating, Velvetleaf” value [5, 19] was 90. The “Plant response rating, Velvetleaf” value [5, 20] was 80, the “Plant response rating (0 to 100), Velvetleaf” value [5, 21] was 100 and the “Plant response rating, Velvetleaf” value [5, 22] was 100. For the same compound, the “Plant response rating, Sunflower” value (Sunflower) was 40, the “Plant response rating, Crabgrass” value [6, 19] was 100 and the “Plant response rating, Crabgrass” value [6, 20] was 100. For the same compound, the “Plant response rating (0 to 100), Crabgrass” value [6, 21] was 100, the “Plant response rating, Crabgrass” value [6, 22] was 100 and the “Plant response rating, Nutsedge” value [7, 19] was 0. For the same compound, the “Plant response rating, Nutsedge” value [7, 20] was 0, the “Plant response rating (0 to 100), Nutsedge” value [7, 21] was 0 and the “Plant response rating, Nutsedge” value [7, 22] was 0. The “Plant response rating, Corn” value (corn (Zea mays); [19]) was 30, the “Plant response rating, Corn” value (corn (Zea mays); [20]) was 0 and the “Plant response rating (0 to 100), Corn” value (corn (Zea mays); [21]) was 50. For the same compound, the “Plant response rating, Corn” value (corn (Zea mays); [22]) was 45, the “Plant response rating, Pigweed” value [8, 19] was 100 and the “Plant response rating, Pigweed” value [8, 20] was 100. The “Plant response rating (0 to 100), Pigweed” value [8, 21] was 30, the “Plant response rating, Pigweed” value [8, 22] was 100 and the “Plant response rating, Cupgrass, Woolly” value [9, 19] was 100. The “Plant response rating, Cupgrass, Woolly” value [9, 20] was 80, the “Plant response rating (0 to 100), Cupgrass, Woolly” value [9, 21] was 100 and the “Plant response rating, Cupgrass, Woolly” value [9, 22] was 100. The “Plant response rating, Foxtail, Giant” value [10, 19] was 0, the “Plant response rating, Foxtail, Giant” value [10, 20] was 100 and the “Plant response rating (0 to 100), Foxtail, Giant” value [10, 21] was 100. For the same compound, the “Plant response rating, Foxtail, Giant” value [10, 22] was 100, the “Plant response rating, Johnsongrass” value [11, 19] was 50 and the “Plant response rating, Johnsongrass” value [11, 20] was 45. The “Plant response rating (0 to 100), Johnsongrass” value [11, 21] was 90, the “Plant response rating, Johnsongrass” value [11, 22] was 50 and the “Plant response rating, Goosegrass” value [12, 19] was 100. For the same compound, the “Plant response rating, Goosegrass” value [12, 20] was 100, the “Plant response rating (0 to 100), Goosegrass” value [12, 21] was 100 and the “Plant response rating, Goosegrass” value [12, 22] was 100. The “Plant response rating, Cocklebur” value [13, 19] was 10, the “Plant response rating, Cocklebur” value [13, 20] was 0 and the “Plant response rating (0 to 100), Cocklebur” value [13, 21] was 85. For the same compound, the “Plant response rating, Cocklebur” value [13, 22] was 50, the “Plant response rating, Nightshade” value (Nightshade [14]; Rate 62 g/ha, scale 0 to 100) was 100 and the “Plant response rating, Nightshade” value (Nightshade [14]; [19]) was 100. For the same compound, the “Plant response rating, Nightshade” value (Nightshade [14]; Rate 250 g/ha, scale 0 to 100, 0 no effect, 100 complete control) was 100, the “Plant response rating, Soybean” value (soybean (Glycine max); [19]) was 100 and the “Plant response rating, Soybean” value (soybean (Glycine max); [20]) was 100. The “Plant response rating (0 to 100), Soybean” value (soybean (Glycine max); [21]) was 100, the “Plant response rating, Soybean” value (soybean (Glycine max); [22]) was 100 and the “Plant response rating, Morningglory” value [15, 19] was 10. For the same compound, the “Plant response rating, Morningglory” value [15, 20] was 0, the “Plant response rating (0 to 100), Morningglory” value [15, 21] was 100 and the “Plant response rating, Morningglory” value [15, 22] was 100. For the same compound, the “Rice plant response rating” value (rice (Oryza saliva); Flooded Paddy, Rate 500 g/ha, scale 0 to 100, 0 no effect, 100 complete control) was 30, the “Plant response rating, Rice” value (rice (Oryza saliva); Rate 62 g/ha) was 20 and the “Plant response rating, Rice” value (rice (Oryza saliva); Rate 125 g/ha) was 30. The “Ducksalad plant response rating” value ([16]; Rate 250 g/ha) was 100, the “Ducksalad plant response rating” value ([16]; Rate 500 g/ha) was 100 and the “Plant response rating, Ducksalad” value ([16]; Rate 62 g/ha) was 0. The “Plant response rating, Ducksalad” value ([16]; Rate 125 g/ha) was 100, the “Flatsedge plant response rating” value ([17]; Rate 250 g/ha) was 100 and the “Flatsedge plant response rating” value ([17]; Rate 500 g/ha) was 100. The “Plant response rating, Flatsedge” value ([17]; Rate 62 g/ha) was 100, the “Plant response rating, Flatsedge” value ([17]; Rate 125 g/ha) was 100 and the “Barnyardgrass plant response rating” value ([18]; Rate 250 g/ha) was 90. The “Barnyardgrass plant response rating” value ([18]; Rate 500 g/ha) was 90, the “Plant response rating, Barnyardgrass” value ([18]; Rate 62 g/ha) was 40 and the “Plant response rating, Barnyardgrass” value ([18]; Rate 125 g/ha) was 80.
